Assays:
[1] = Lipid nanoparticle size and polydispersity by dynamic light scattering (Malvern Zetasizer Nano ZS); type: physicochemical
Experimental: (§1) Briefly, a cationic lipid provided herein, DSPC, cholesterol, and PEG-lipid were solubilized in ethanol at a molar ratio of 50:10:38.5:1.5, and mRNA were diluted in 10 to 50 mM citrate buffer, pH=4. The LNPs were prepared at a total lipid to mRNA weight ratio of approximately 10:1 to 30:1 by mixing the ethanolic lipid solution with the aqueous mRNA solution at a volume ratio of 1:3 using a microfluidic apparatus, total flow rate ranging from 9-30 mL/min. Ethanol were thereby removed and replaced by DPBS using dialysis. Finally, the lipid nanoparticles were filtered through a 0.2 μm sterile filter.
(§2) Lipid nanoparticle size were determined by dynamic light scattering using a Malvern Zetasizer Nano ZS (Malvern UK) using a 173° backscatter detection mode. The encapsulation efficiency of lipid nanoparticles were determined using a Quant-it Ribogreen RNA quantification assay kit (Thermo Fisher Scientific, UK) according to the manufacturer's instructions.

[2] = Apparent pKa of LNP formulations by TNS fluorescence assay; type: physicochemical; conditions: LNP cationic lipid/DSPC/cholesterol/DMG-PEG 50/10/38.5/1.5 mol %
Experimental: As reported in literature, the apparent pKa of LNP formulations correlates with the delivery efficiency of LNPs for nucleic acids in vivo. The apparent pKa of each formulation was determined using an assay based on fluorescence of 2-(p-toluidino)-6-napthalene sulfonic acid (TNS). LNP formulations comprising of cationic lipid/DSPC/cholesterol/DMG-PEG (50/10/38.5/1.5 mol %) in PBS were prepared as described above. TNS was prepared as a 300 uM stock solution in distilled water. LNP formulations were diluted to 0.1 mg/ml total lipid in 3 mL of buffered solutions containing 50 mM sodium citrate, 50 mM sodium phosphate, 50 mM sodium borate, and 30 mM sodium chloride where the pH ranged from 3 to 9. An aliquot of the TNS solution was added to give a final concentration of 0.1 mg/ml and following vortex mixing fluorescence intensity was measured at room temperature in a Molecular Devices Spectramax iD3 spectrometer using excitation and mission wavelengths of 325 nm and 435 nm. A sigmoidal best fit analysis was applied to the fluorescence data and the pKa value was measured as the pH giving rise to half-maximal fluorescent intensity.

[3] = Encapsulation efficiency of lipid nanoparticles (Quant-it Ribogreen RNA quantification assay); type: physicochemical
Experimental: as §1, §2

female Balb/c mice = assay: Animal study: LNPs encapsulating luciferase mRNA, tail vein injection, organ bioluminescence imaging (IVIS Spectrum CT); type: in vivo; conditions: luciferase mRNA LNP, 0.25 mg/kg tail vein; for luciferase expression in bone marrow (in words): 6 h; for bone marrow* Avg Radiance: bone marrow at 6 h; for brain* Avg Radiance: dissected brain at 6 h; for heart* Avg Radiance: dissected heart at 6 h; for kidney* Avg Radiance: dissected kidney at 6 h; for liver* Avg Radiance: dissected liver at 6 h; for lung* Avg Radiance: dissected lung at 6 h; for spleen* Avg Radiance: dissected spleen at 6 h
Experimental: Lipid nanoparticles comprising certain compounds provided herein encapsulating luciferase encoding (luciferase) mRNA were systemically administered to 6-8 week old female Balb/c mice (Charles River Lab, ZheJiang) at 0.25 mg/kg dose by tail vein injection, and mice blood were sampled at specific time points (e.g., 6 hours) post administration. Optical imaging was performed using the IVIS Spectrum CT device (PerkinElmer Inc., Paris, France). The luminescence level was evaluated by an ROI applied to the injection site zone (Living Image software, PerkinElmer Inc., Paris, France).
Radiance of heart, liver, spleen, lung, kidney, brain and bone marrow were taken at 6 h. Dissected organs were placed on a black sheet and imaged with IVIS Spectrum CT (PerkinElmer, Hopkinton, MA). To quantify bioluminescence emission signal, identical regions of interest (ROI) were positioned to encircle each organ region, the imaging signal was quantitated as average radiance (photons/s/cm2/steradian).

[4] = LNP encapsulating hEPO mRNA, table of Example 16
[5] = LNP: cationic lipid/DSPC/cholesterol/PEG-lipid 50:10:38.5:1.5, mRNA, table of Example 15

Row | SMILES | polydispersity [1, 4] | size (nm) [1, 4] | Apparant Pka ([2]; table of Example 16) | Encapsulation Efficiency [3, 4] | other results
1 | CCCCCCCCCCC(=O)OCC(COC(=O)CCCCCCN(CCO)C1CCC1)COC(=O)CCCC(COC(=O)CCCCCCC)COC(=O)CCCCCCC (stereo not drawn) [Compound 50] | 0.158 | 89.62 nm | 7.175 | 91.68% | 
2 | CCCCCCCCC(=O)OCC(COC(=O)CCCCCCN(CCO)C1CCC1)COC(=O)CCCC(COC(=O)CCCCCCC)COC(=O)CCCCCCC (stereo not drawn) [Compound 57] | 0.079 | 117 nm | 7.016 | 84.36% | 
3 | CCCCCCCCCC(=O)OCC(COC(=O)CCCCCN(CCO)C1CCC1)COC(=O)CCCC(COC(=O)CCCCCCC)COC(=O)CCCCCCC (stereo not drawn) [Compound 58] | 0.129 | 104.3 nm | 6.97 | 77.87% | 
4 | CCCCCCCCCCCCC(=O)OCC(COC(=O)CCCCCCN(CCO)C1CCC1)COC(=O)CCCC(COC(=O)CCCCCCC)COC(=O)CCCCCCC (stereo not drawn) [Compound 64] | 0.196 | 105.4 nm | 6.837 | 87.35% | 
5 | CCCCCCCC(=O)OCC(CCCC(=O)OCC(COC(=O)CCCCCCC)COC(=O)CCCCCCN(CCO)C1CCC1)COC(=O)CCCCCCC (stereo not drawn) [Compound 78] |  |  |  |  | polydispersity [1, 5]: 0.043; size (nm) [1, 5]: 132 nm; Apparant Pka ([2]; table of Example 15): 6.864; Encapsulation Efficiency [3, 5]: 87.30%; luciferase expression in bone marrow (in words) (female Balb/c mice): mild expression; bone marrow* Avg Radiance (female Balb/c mice): 0.51 E+04 p/s/cm^2/sr; brain* Avg Radiance (female Balb/c mice): 3.25 E+04 p/s/cm^2/sr; heart* Avg Radiance (female Balb/c mice): 3.65 E+04 p/s/cm^2/sr; kidney* Avg Radiance (female Balb/c mice): 7.88 E+04 p/s/cm^2/sr; liver* Avg Radiance (female Balb/c mice): 11.41 E+06 p/s/cm^2/sr; lung* Avg Radiance (female Balb/c mice): 3.83 E+04 p/s/cm^2/sr; spleen* Avg Radiance (female Balb/c mice): 2.07 E+06 p/s/cm^2/sr
6 | C=CCN(CCO)CCCCC(=O)OCC(COC(=O)CCCCCCCCCCCCCCCCC)COC(=O)CCCC(COC(=O)CCCCCCC)COC(=O)CCCCCCC (stereo not drawn) [Compound 84] | 0.069 | 84.76 nm | 6.597 | 92.56% | 
7 | CCCCC/C=C\C/C=C\CCCCCCCC(=O)OCC(COC(=O)CCCC(COC(=O)CCCCCCC)COC(=O)CCCCCCC)COC(=O)OCCCN(CCC)CCO (stereo not drawn) [Compound 87] | 0.034 | 99.16 nm | 6.384 | 93.62% | 
8 | CCCCCCCC(=O)OCC(CCCC(=O)OCC(COC(=O)CCCC(COC(=O)CCCCCCC)COC(=O)CCCCCCC)COC(=O)OCCN(C)CCO)COC(=O)CCCCCCC [Compound 91] | 0.023 | 72.66 nm | 5.811 | 86.02% | 
9 | CCCCCCCCCCCCCCCCCC(=O)OCC(COC(=O)CCCCN(CCC)CCO)COC(=O)CCC(=O)OCC(COC(=O)CCCCCCC)COC(=O)CCCCCCC (stereo not drawn) [Compound 98] | 0.207 | 102.92 nm | 7.14 | 83.41% | 
10 | CCCCCCCCC(CCCCCCCC)COC(=O)CCOCC(COCCC(=O)OCC(CCCCCCCC)CCCCCCCC)COC(=O)CCCCN(CCO)C1CCC1 [Compound 100] | 0.02588 | 67.27 nm | 6.535 | 91.54% | 
11 | CCCCCCCCOC(=O)CCCCCCCC(=O)OCC(COC(=O)CCCCN(CCO)C1CCCCC1)COC(=O)CCCC(COC(=O)CCCCCCC)COC(=O)CCCCCCC (stereo not drawn) [Compound 104] | 0.02612 | 98.52 nm | 6.707 | 89.87% | 
12 | CCCCC/C=C\C/C=C\CCCCCCCC(=O)OCC(COC(=O)CCCC(COC(=O)CCCCCCC)COC(=O)CCCCCCC)COC(=O)OCCCN(CCO)CCCC (stereo not drawn) [Compound 105] | 0.06244 | 80.11 nm | 6.262 | 89.77% | 
13 | CCCCC/C=C\C/C=C\CCCCCCCC(=O)OCC(COC(=O)CCCC(COC(=O)CCCCCCC)COC(=O)CCCCCCC)COC(=O)OCCCN(CCO)C1CCCCC1 (stereo not drawn) [Compound 106] | 0.01154 | 77.71 nm | 6.091 | 77.94% | 
14 | CCCCC/C=C\C/C=C\CCCCCCCC(=O)OCC(COC(=O)CCCC(COC(=O)CCCCCCC)COC(=O)CCCCCCC)OC(=O)CCCCN(CCO)C1CCCCC1 (stereo not drawn) [Compound 107] | 0.04979 | 66.11 nm | 6.441 | 89.61% | 
15 | CCCCCCCCCCCCCCCCCC(=O)OCC(COC(=O)CCCC(COC(=O)CCCCCCC)COC(=O)CCCCCCC)OC(=O)CCCCN(CCO)C1CCC1 (stereo not drawn) [Compound 114] |  |  |  |  | polydispersity [1, 5]: 0.206; size (nm) [1, 5]: 89.95 nm; Apparant Pka ([2]; table of Example 15): 7.194; Encapsulation Efficiency [3, 5]: 87.34%; luciferase expression in bone marrow (in words) (female Balb/c mice): mild expression; bone marrow* Avg Radiance (female Balb/c mice): 0.2 E+04 p/s/cm^2/sr; brain* Avg Radiance (female Balb/c mice): 6.01 E+04 p/s/cm^2/sr; heart* Avg Radiance (female Balb/c mice): 5.49 E+04 p/s/cm^2/sr; kidney* Avg Radiance (female Balb/c mice): 7.63 E+04 p/s/cm^2/sr; liver* Avg Radiance (female Balb/c mice): 21.27 E+06 p/s/cm^2/sr; lung* Avg Radiance (female Balb/c mice): 6.22 E+04 p/s/cm^2/sr; spleen* Avg Radiance (female Balb/c mice): 2.7 E+06 p/s/cm^2/sr
16 | CCCCC/C=C\C/C=C\CCCCCCCC(=O)OCC(COC(=O)CCC(OCCCCCCCC)OCCCCCCCC)COC(=O)OCCCN(CCO)C1CCC1 (stereo not drawn) [Compound 115] |  |  |  |  | polydispersity [1, 5]: 0.033; size (nm) [1, 5]: 71.59 nm; Apparant Pka ([2]; table of Example 15): 6.499; Encapsulation Efficiency [3, 5]: 91.21%; bone marrow* Avg Radiance (female Balb/c mice): −0.66 E+04 p/s/cm^2/sr; brain* Avg Radiance (female Balb/c mice): 14.59 E+04 p/s/cm^2/sr; heart* Avg Radiance (female Balb/c mice): 13.74 E+04 p/s/cm^2/sr; kidney* Avg Radiance (female Balb/c mice): 27.83 E+04 p/s/cm^2/sr; liver* Avg Radiance (female Balb/c mice): 44.21 E+06 p/s/cm^2/sr; lung* Avg Radiance (female Balb/c mice): 7.01 E+04 p/s/cm^2/sr; spleen* Avg Radiance (female Balb/c mice): 1.06 E+06 p/s/cm^2/sr

— patent US20240252650A1, “LIPID COMPOUNDS AND LIPID NANOPARTICLE COMPOSITIONS” (SUZHOU ABOGEN BIOSCIENCES CO., LTD., priority 2021, published 2024)
